Where “and” joins values, the source holds several entries; their conditions need not be identical. Identical values can stand only once.
Key:
hEPO [1] = test: IM EPO expression of LNPs containing phosphatidylcholine helper lipids; format: in vivo, female BALB/cJ mice; details: PC/CL-C formulations, helper lipid 13.5 mol %, DOPE = 1
Method: EPO expression studies were conducted with female BALB/cJ mice 6-8 weeks of age. Mice were dosed with […] EPO mRNA in 30 μL of LNPs by a single intramuscular (IM) injection into the gastrocnemius leg muscle. Blood samples were taken 6 and 24 hours post injection and hEPO levels were measured in the blood serum of the mice using an ELISA assay according to the manufacture's protocol. WO2022/099003 A1 also describes an in vivo assay for intramuscular administration (e.g. on page 46, paragraph [00206]).
Lipid nanoparticles were formulated containing the four lipid components shown below, complexed with a hEPO messenger RNA. • Cationic lipid CL-C, 40 mol % • Helper lipid, 13.5 mol % • Cholesterol, 44.8 mol % • DMG-PEG-2K (1,2-dimyristoyl-rac-glycero-3-methoxypolyethyleneglycol), 1.67 mol %
EPO expression studies were performed as described above in Example 3.

hEPO [2] = test: IV delivery using phosphatidylcholine helper lipids (EPO expression); format: in vivo, female BALB/cJ mice; details: cationic lipid CL-0137, helper lipid 13.5 mol %; 0.017 μg EPO mRNA tail vein; 6 hours; DOPE = 1
Method: Lipid nanoparticles were formulated containing the four lipid components shown below, complexed with a hEPO messenger RNA. • Cationic lipid CL-0137, 40 mol % • Helper lipid, 13.5 mol % • Cholesterol, 44.8 mol % • DMG-PEG-2K (1,2-dimyristoyl-rac-glycero-3-methoxypolyethyleneglycol), 1.67 mol %
EPO expression studies were conducted with female BALB/cJ mice 6-8 weeks of age. Mice were dosed with 0.017 μg EPO mRNA LNPs in a volume of 5 ul by a single tail vein injection. Blood samples were taken 6 hours post injection and hEPO levels were measured in the blood serum of the mice using an ELISA assay according to the manufacture's protocol.

[3] = Dynamic light scattering of lipid nanoparticles (size, PDI); format: physicochemical; details: LNP with cationic lipid CL-A
Summary of the method: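 LNPs of cationic lipid:DMG-PEG2000:cholesterol:helper lipid at 40:1.5:30:28.5 molar ratio, made by Process A. Diluted in 10% trehalose (about 0.1 mg/ml mRNA) and sized by DLS at 173° backscatter with a 633-nm laser, giving size and PDI.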

[4] = mRNA encapsulation efficiency of lipid nanoparticles; format: physicochemical; details: LNP with cationic lipid CL-A
Summary of the method: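 Encapsulation by RiboGreen assay run with and without 0.1% Triton-X 100. LNPs made by ethanolic lipid mixing with acidic aqueous mRNA, molar ratio 40:1.5:30:28.5 (cationic lipid:DMG-PEG2000:cholesterol:helper lipid), ultrafiltered/diafiltered, stored at −80° C. Size/PdI by dynamic light scattering after dilution in 10% trehalose to about 0.1 mg/ml mRNA.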

hEPO [5] = test: IM EPO expression of LNPs containing new helper lipids (hEPO in serum by ELISA); format: in vivo, female BALB/cJ mice; details: for 6-h EPO / 24-h EPO: single IM injection; for 24-h EPO: serum 24 hours post injection
Summary of the method: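 Female BALB/cJ mice aged 6-8 weeks received one intramuscular gastrocnemius injection of […] hEPO mRNA in 30 μL LNPs. The LNPs contained cationic lipid, phospholipid helper, cholesterol and DMG-PEG-2K at 40:30:28.5:1.5 mol %. Serum hEPO was measured by ELISA at 6 and 24 h.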

hEPO [6] = test: IV EPO expression of LNPs (tail vein injection); format: in vivo, female BALB/cJ mice; details: cationic lipid CL-0137, helper lipid 30 mol %; 0.017 μg EPO mRNA tail vein; 6 hours; DOPE = 1
Summary of the method: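 Female BALB/cJ mice (6-8 weeks) received a single tail-vein injection of 0.017 μg hEPO mRNA in LNPs (cationic lipid CL-0137/helper lipid/cholesterol/DMG-PEG-2K, 40:30:28.5:1.5 mol %). Serum hEPO was measured by ELISA on blood taken 6 h post-dose.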

In the case of `CCCCCCCCC(CCCCCCCC)C(=O)OCCCCCC(=O)OC[C@@H](COP(=O)(O)OCC[N+](C)(C)C)OC(=O)CCCCCOC(=O)C(CCCCCCCC)CCCCCCCC` [Compound 54, (S)-2,3-Bis((6-((2-octyldecanoyl)oxy)hexanoyl)oxy)propyl (2-(trimethylammonio)ethyl) phosphate], the “Normalized Mean EPO expression” value (hEPO [1]) is reported as 0.5 and the “Normalized mean IV EPO expression using PC LNPs” value (hEPO [2]) is reported as 0.97.

For `CCCCCCCCC(CCCCCCCC)OC(=O)CCCCCCC(=O)OC[C@@H](COP(=O)([O-])OCC[N+](C)(C)C)OC(=O)CCCCCCC(=O)OC(CCCCCCCC)CCCCCCCC` [Compound 42, (S)-2,3-Bis((8-(heptadecan-9-yloxy)-8-oxooctanoyl)oxy)propyl (2-(trimethylammonio)ethyl) phosphate], the “Normalized Mean EPO expression” value (hEPO [1]) was 1.1 and the “Normalized mean IV EPO expression using PC LNPs” value (hEPO [2]) was 1.16.

With `CCCCCCCC/C=C\CCCCCCCC(=O)OC[C@H](COP(=O)(O)OCCN)OC(=O)CCCCCCC/C=C\CCCCCCCC` [DOPE, dioleoylphosphatidylethanolamine, reference compound] the “Polydispersity Index (PDI)” value [3] was 0.06 and 0.100, the Size ([3]; hEPO mRNA, 40:30:28.5:1.5) was 129 nm and 119 nm and the “Encapsulation efficiency (EE)” value [4] was 91%. The “6-h EPO” value (hEPO [5]; CL-A LNP, 0.1 μg EPO mRNA in 30 μL, serum 6 hours post injection) was 26.23 ng/mL, the “24-h EPO” value (hEPO [5]; CL-A LNP) was 19.128 ng/mL and the “6-h EPO” value (hEPO [5]; CL-B LNP, serum 6 hours post injection) was 19.62 ng/mL. For the same molecule, the “24-h EPO” value (hEPO [5]; CL-B LNP) was 15.03 ng/mL, the “6-h EPO” value (hEPO [5]; CL-C LNP) was 16.38 ng/mL and the “6-h EPO” value (hEPO [5]; CL-C LNP, (6-h)) was 20.96 ng/mL. The “Normalized Mean EPO expression” value (hEPO [5]; helper lipid CL-C formulations, IM, DOPE = 1) was 1, the “Normalized Mean EPO expression” value (hEPO [1]) was 1 and the “Normalized Mean IV EPO expression” value (hEPO [6]) was 1. For the same molecule, the “Normalized mean IV EPO expression using PC LNPs” value (hEPO [2]) was 1.

With `CCCCCCCCC(CCCCCCCC)OC(=O)CCCCCCCC(=O)O[C@@H](COC(=O)CCCCCCC(=O)OC(CCCCCCCC)CCCCCCCC)COP(=O)(O)OCC[N+](C)(C)C` [Compound 46, (S)-3-((8-(Heptadecan-9-yloxy)-8-oxooctanoyl)oxy)-2-((9-(heptadecan-9-yloxy)-9-oxononanoyl)oxy)propyl (2-(trimethylammonio)ethyl) phosphate] the “Normalized Mean EPO expression” value (hEPO [1]) was 1.1 and the “Normalized mean IV EPO expression using PC LNPs” value (hEPO [2]) was 1.34.

In the case of `CCCCCCCCCCCCCCCC(=O)OC[C@@H](COP(=O)(O)OCC[N+](C)(C)C)OC(=O)CCCCCCC(=O)OC(CCCCCCCC)CCCCCCCC` [Compound 56, (S)-2-((8-(Heptadecan-9-yloxy)-8-oxooctanoyl)oxy)-3-(palmitoyloxy)propyl (2-(trimethylammonio)ethyl) phosphate], the “Normalized Mean EPO expression” value (hEPO [1]) is reported as 1 and the “Normalized mean IV EPO expression using PC LNPs” value (hEPO [2]) is reported as 1.52.

In the case of `CCCCCCCCC(CCCCCCCC)OC(=O)CCCCCCC(=O)O[C@@H](COC(=O)CCCCC(=O)OC(CCCCCCCC)CCCCCCCC)COP(=O)(O)OCC[N+](C)(C)C` [Compound 48, (S)-3-((6-(Heptadecan-9-yloxy)-6-oxohexanoyl)oxy)-2-((8-(heptadecan-9-yloxy)-8-oxooctanoyl)oxy)propyl (2-(trimethylammonio)ethyl) phosphate], the “Normalized Mean EPO expression” value (hEPO [1]) is reported as 1.1 and the “Normalized mean IV EPO expression using PC LNPs” value (hEPO [2]) is reported as 1.08.

In the case of `CCCCCCCCC(CCCCCCCC)OC(=O)CCCCCCC(=O)OC[C@H](COP(=O)([O-])OCC[N+](C)(C)C)OC(=O)CCCCCCC(=O)OC(CCCCCCCC)CCCCCCCC` [Compound 41, (R)-2,3-Bis((8-(heptadecan-9-yloxy)-8-oxooctanoyl)oxy)propyl (2-(trimethylammonio)ethyl) phosphate], the “Normalized Mean EPO expression” value (hEPO [1]) is reported as 1.3 and the “Normalized Mean IV EPO expression” value (hEPO [6]) is reported as 1.7.

For `CCCCCCCCCCCCCCCC(=O)OC[C@H](COP(=O)(O)OCC[N+](C)(C)C)OC(=O)CCCCCCC(=O)OC(CCCCCCCC)CCCCCCCC` [Compound 57, (R)-2-((8-(Heptadecan-9-yloxy)-8-oxooctanoyl)oxy)-3-(palmitoyloxy)propyl (2-(trimethylammonio)ethyl) phosphate], the “Normalized Mean EPO expression” value (hEPO [1]) was 0.9.

With `CCCCCCCCC(CCCCCCCC)OC(=O)CCCCCCCCC(=O)OC[C@@H](COP(=O)(O)OCC[N+](C)(C)C)OC(=O)CCCCCCC(=O)OC(CCCCCCCC)CCCCCCCC` [Compound 52, (S)-3-((10-(Heptadecan-9-yloxy)-10-oxodecanoyl)oxy)-2-((8-(heptadecan-9-yloxy)-8-oxooctanoyl)oxy)propyl (2-(trimethylammonio)ethyl) phosphate] the “Normalized Mean EPO expression” value (hEPO [1]) was 1 and the “Normalized mean IV EPO expression using PC LNPs” value (hEPO [2]) was 1.53.

In the case of `CCCCCCCCCCCCCCCCCC(=O)OC[C@H](COP(=O)([O-])OCC[N+](C)(C)C)OC(=O)CCCCCCCCCCCCCCCCC` [DSPC, distearoylphosphatidylcholine, reference compound], the “Normalized mean IV EPO expression using PC LNPs” value (hEPO [2]) is reported as 0.89.

With `CCCCCCCCC(CCCCCCCC)OC(=O)CCCCCCCC(=O)OC[C@@H](COP(=O)(O)OCC[N+](C)(C)C)OC(=O)CCCCCCC(=O)OC(CCCCCCCC)CCCCCCCC` [Compound 50, (S)-2-((8-(Heptadecan-9-yloxy)-8-oxooctanoyl)oxy)-3-((9-(heptadecan-9-yloxy)-9-oxononanoyl)oxy)propyl (2-(trimethylammonio)ethyl) phosphate] the “Normalized Mean EPO expression” value (hEPO [1]) was 1 and the “Normalized mean IV EPO expression using PC LNPs” value (hEPO [2]) was 1.6.

In the case of `CCCCCCCCC(CCCCCCCC)OC(=O)CCCCCCCCC(=O)O[C@@H](COC(=O)CCCCCCC(=O)OC(CCCCCCCC)CCCCCCCC)COP(=O)(O)OCC[N+](C)(C)C` [Compound 44, (S)-2-((10-(Heptadecan-9-yloxy)-10-oxodecanoyl)oxy)-3-((8-(heptadecan-9-yloxy)-8-oxooctanoyl)oxy)propyl (2-(trimethylammonio)ethyl) phosphate], the “Normalized Mean EPO expression” value (hEPO [1]) is reported as 1 and the “Normalized mean IV EPO expression using PC LNPs” value (hEPO [2]) is reported as 1.32.

From patent US20260224688A1, “HELPER LIPIDS FOR NUCLEIC ACID DELIVERY” (SANOFI PASTEUR INC., priority 2023, published 2026)
